From US6136552A, “High-affinity salicylic acid-binding protein and methods of use” (Rutgers, The State University of New Jersey, priority 1997, dated 2000)
Like-named read-outs stand apart in the source and are kept apart here.

Tests used:
[1] = molecular target: T1, SABP2 (Nicotiana tabacum, UniProt Q6RYA0); assay: [3H]SA competition assay with unlabeled SA and SA analogues; format: binding, tobacco
T1 construct: Soluble proteins were extracted from the powdered leaves; from tissue; host or cells: tobacco leaf (cv. Xanthi nc), 50-75% ammonium sulfate fraction
T1 sequence (Q6RYA0 1-260): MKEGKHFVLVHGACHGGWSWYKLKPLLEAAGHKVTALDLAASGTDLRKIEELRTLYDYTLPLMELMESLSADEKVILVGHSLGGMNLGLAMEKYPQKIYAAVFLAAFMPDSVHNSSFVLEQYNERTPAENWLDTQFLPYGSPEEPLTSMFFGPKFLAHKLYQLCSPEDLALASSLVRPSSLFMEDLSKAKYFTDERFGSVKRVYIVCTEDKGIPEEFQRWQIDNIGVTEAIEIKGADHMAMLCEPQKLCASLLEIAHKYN
Protocol: (§1) [3H]SA binding and competition assays. […] Spin columns were prepared by packing Sephadex G25 gel (exclusion limit 5 kDa; Pharmacia), which was pre-equilibrated in buffer A, in a 1-mL disposable syringe and centrifuging at 1,000 g for 4 minutes at 4° C. This process was repeated until the bed volume of the spin column reached 1 mL. One additional spin with 125 μL buffer A was performed under the same centrifugation conditions. The binding mixture (125 μL) was loaded onto the spin column and immediately centrifuged. […] When no protein extract was included in the binding mixture, the background radioactivity level was 33±3 dpm/100 μL. For the boiling treatment, the extract was boiled for 5 minutes and denatured protein aggregates were removed by centrifugation at 12,000 g for 1 minute.

[2] = test system: PR gene expression and enhanced disease resistance; parameters: key to Biological activity: +, active; -, inactive; conditions: cited from earlier work; for Biological activity: based on FIG. 7 and literature
[3] = test system: PR-1 gene expression; assay: Induction of PR-1 gene expression in leaf discs (northern blot); format: cell-based, tobacco; conditions: Nicotiana tabacum, foliar, 24 hours after treatment, read-out: concentration giving 15-fold induction of PR-1 gene expression
From the text: As a control, rRNA present in each lane is also shown. FIG. 7B is a graph showing quantification of the fold-induction of the PR-1 mRNA levels after SA (.cndot.) and BTH (.smallcircle.) treatment. The levels of PR-1 mRNA were normalized to the amounts of rRNA. The rRNA-normalized levels of PR-1 mRNA obtained after infiltration of leaf discs with SA or BTH were divided by the rRNA-normalized level of PR-1 mRNA obtained after infiltration with water only to determine the fold induction. The data presented are from a single experiment; two additional experiments were done. The maximum-fold induction of the PR-1 genes and the concentrations of SA and BTH required to reach approximately 50% of this value varied somewhat among the three experiments, depending on the age of the plant. In the three experiments, the concentrations of BTH needed to reach approximately 50% induction were 30- to 40-fold lower than those for SA.

[4] = molecular target: T2, tobacco catalase (Nicotiana tabacum, UniProt P49319); assay: Inhibition of catalase activity; format: biochemical; conditions: unpublished data
T2 construct: tobacco catalase activity in suspension cells and in crude leaf extracts; host or cells: tobacco suspension cells, crude leaf extracts, purified enzyme
T2 sequence (P49319 1-492): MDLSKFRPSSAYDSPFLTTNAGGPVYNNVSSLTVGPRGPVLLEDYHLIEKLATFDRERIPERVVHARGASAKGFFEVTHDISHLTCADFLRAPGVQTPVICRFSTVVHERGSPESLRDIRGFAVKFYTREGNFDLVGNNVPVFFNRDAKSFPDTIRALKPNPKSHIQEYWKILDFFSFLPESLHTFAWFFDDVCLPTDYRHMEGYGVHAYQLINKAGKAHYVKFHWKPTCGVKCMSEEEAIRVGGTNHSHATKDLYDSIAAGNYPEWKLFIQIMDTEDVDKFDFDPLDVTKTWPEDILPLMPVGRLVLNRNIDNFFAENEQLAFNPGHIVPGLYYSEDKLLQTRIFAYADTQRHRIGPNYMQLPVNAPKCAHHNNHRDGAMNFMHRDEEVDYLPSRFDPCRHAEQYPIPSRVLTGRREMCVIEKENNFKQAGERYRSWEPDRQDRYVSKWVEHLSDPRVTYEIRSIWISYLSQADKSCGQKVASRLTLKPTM

[5] = test system: tobacco catalase; conditions: in vivo; cited from earlier work
[6] = molecular target: T2, tobacco catalase; conditions: cited from earlier work
[7] = test system: APX; conditions: cited from earlier work
[8] = molecular target: T1, SABP2; assay: [3H]SA binding assay (kinetics, reversibility, saturation, Scatchard plot); parameters: species or system tobacco; conditions: for time until binding is complete / approaches equilibrium: 0-4° C.
Protocol: as §1

[9] = molecular target: T3, catalase (Nicotiana tabacum, UniProt P49319); conditions: cited from earlier work
T3 construct: has been identified in tobacco leaf extracts; host or cells: tobacco leaf extracts
T3 sequence (P49319 1-492): T2 sequence (P49319 1-492)

[10] = 50-75% fraction, 0.1 μM [3H]SA, on ice 2 hours, estimated from FIG. 6, read-out: IC50 of competition for [3H]SA binding

SMILES	IC50 [1, 10] [µM]	Biological activity [2]	Biologically active / inactive (FIG. 6 legend) ([2]; in vivo)	IC50 [1] [µM]	other results
O=C(O)c1cc(O)ccc1O [2,5-dihydroxybenzoic acid]	20	-	biologically inactive		
O=C(O)c1c(O)cccc1O [2,6-dihydroxybenzoic acid]	2	+	Biologically active		
O=C(O)c1cccc(O)c1 [3-hydroxybenzoic acid]	105	-	biologically inactive		
O=C(O)c1ccc(O)cc1 [4-hydroxybenzoic acid]	> 1000	-	biologically inactive		
O=C(O)c1cc(Cl)ccc1O [5-chloroSA, 5-chlorosalicylic acid]	0.3	+	Biologically active		
CSC(=O)c1cccc2nnsc12 [BTH, benzo(1,2,3)thiadiazole-7-carbothioic acid S-methyl ester]		+	Biologically active	0.1	EC (15-fold) [3]: ~3.3 µM; catalase inhibition compared with SA [4]: more effective inhibitor of catalase than SA
O=C(O)c1cc(Cl)nc(Cl)c1 [INA, 2,6-dichloroisonicotinic acid]		+	Biologically active	70	inhibition of tobacco catalase in vivo [5]: effectively blocks tobacco catalase in vivo; inhibition of catalase activity in crude extracts ([6]; crude extracts): less effective at inhibiting catalase activity in crude extracts; inhibition of purified tobacco catalase ([6]; purified enzyme): fails to inhibit purified tobacco catalase
O=C(O)c1ccccc1O[C@@H]1O[C@H](CO)[C@@H](O)[C@H](O)[C@H]1O [SA β-glucoside]					induction of disease resistance ([2]; in vivo): not active
O=C(O)c1ccccc1O [SA, salicylic acid]		+	Biologically active	1.5	SA level required for effective inhibition of APX activity [7]: 50 to 300 µM; time until binding is complete / approaches equilibrium [8]: 15 to 20 min; inhibition at 1000 µM ([8]; 50-75% fraction, 1 mM SA, 0.1 μM [3H]SA, read-out: reduction of binding activity in the presence of excess unlabeled SA): 85%; remaining activity at 1000 µM ([8]; 100% = binding after 160 minutes of incubation, read-out: [3H]SA binding remaining after addition of 1 mM SA): < 10%; Kd ([8]; Scatchard plot, 50-75% fraction): 0.09 µM; Kd ([9]; [14C]SA, tobacco leaf extracts, read-out: Kd of SA binding to catalase): 14 µM; time until binding to catalase approaches equilibrium [9]: 90 to 120 min; SA level required for effective inhibition of catalase activity [6]: 50 to 300 µM
O=C(O)c1ccccc1O [[^3 H]SA]					time until binding is complete / approaches equilibrium [8]: approximately 20 minutes; half association time ([8]; 50-75% fraction): 5 min
